Measurements taken from ChEMBL document CHEMBL1201862, “PubChem BioAssay data set” (2004).
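Exposure lasted 48 hours, with cells grown in 96-well plates and compounds tested at five concentrations. The concentration for 50% growth inhibition is given as GI50.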 The source made the active and inactive calls. Cut-off read from the data, not from the text of the source: active = GI50 up to about 1.1 µM and inactive = higher.

How the values were obtained:
Assay in all cases: DTP human tumour cell line panel, 48 h
SNB-19 = test system: SNB-19
IGROV-1 = test system: IGROV-1
HOP-92 = test system: HOP-92
RXF 393 = test system: RXF 393
K562 = test system: K562
HT-29 = test system: HT-29
UACC-62 = test system: UACC-62
M14 = test system: M14
OVCAR-8 = test system: OVCAR-8
COLO 205 = test system: COLO 205
786-0 = test system: 786-0
SR = test system: SR
HOP-18 = test system: HOP-18
HOP-62 = test system: HOP-62
LOX IMVI = test system: LOX IMVI
OVCAR-3 = test system: OVCAR-3
UACC-257 = test system: UACC-257
CCRF-CEM = test system: CCRF-CEM
ACHN = test system: ACHN
Malme-3M = test system: Malme-3M
NCI-H226 = test system: NCI-H226
SK-MEL-5 = test system: SK-MEL-5
OVCAR-5 = test system: OVCAR-5
M19-MEL = test system: M19-MEL
SNB-75 = test system: SNB-75
HCT-116 = test system: HCT-116
HL-60 = test system: HL-60
RXF 631 = test system: RXF 631
NCI-H23 = test system: NCI-H23
SF-268 = test system: SF-268
LXFL 529 = test system: LXFL 529
NCI-H460 = test system: NCI-H460
SF-539 = test system: SF-539
SN12C = test system: SN12C
SK-MEL-28 = test system: SK-MEL-28
NCI-H522 = test system: NCI-H522
TK-10 = test system: TK-10
MOLT-4 = test system: MOLT-4
EKVX = test system: EKVX
HCC 2998 = test system: HCC 2998
SK-MEL-2 = test system: SK-MEL-2
SK-OV-3 = test system: SK-OV-3
U-251 = test system: U-251
HCT-15 = test system: HCT-15
SW-620 = test system: SW-620
KM12 = test system: KM12
KM-20L2 = test system: KM-20L2
A549 = test system: A549
UO-31 = test system: UO-31
XF498 = test system: XF498
DLD-1 = test system: DLD-1
RPMI-8226 = test system: RPMI-8226
SF-295 = test system: SF-295
A498 = test system: A498
T47D = test system: T47D
Hs-578T = test system: Hs-578T
MDA-N = test system: MDA-N
CAKI-1 = test system: CAKI-1
DU-145 = test system: DU-145
MDA-MB-435 = test system: MDA-MB-435
MCF7 = test system: MCF7
DMS-273 = test system: DMS-273
PC-3 = test system: PC-3
MDA-MB-231 = test system: MDA-MB-231
SNB-78 = test system: SNB-78
DMS-114 = test system: DMS-114
BT-549 = test system: BT-549
OVCAR-4 = test system: OVCAR-4

Cc1ccccc1C1=[N+]([O-])c2ccc(Cl)cc2C1=O
GI50 (SNB-19): 28.1 µM (inactive) | GI50 (IGROV-1): 15.3 µM (inactive) | GI50 (HOP-92): 14.8 µM (inactive) | GI50 (RXF 393): 20 µM (inactive) | GI50 (K562): 6.12 µM (inactive) | GI50 (HT-29): 5.01 µM (inactive) | GI50 (UACC-62): 12.4 µM (inactive) | GI50 (M14): 16.3 µM (inactive) | GI50 (OVCAR-8): 7.14 µM (inactive) | GI50 (COLO 205): 7.76 µM (inactive) | GI50 (786-0): 18.9 µM (inactive) | GI50 (SR): 11.8 µM (inactive) | GI50 (HOP-18): 14.1 µM (inactive) | GI50 (HOP-62): 20 µM (inactive) | GI50 (LOX IMVI): 7.78 µM (inactive) | GI50 (OVCAR-3): 2.6 µM (inactive) | GI50 (UACC-257): 13.1 µM (inactive) | GI50 (CCRF-CEM): 3.82 µM (inactive) | GI50 (ACHN): 12.9 µM (inactive) | GI50 (Malme-3M): 16.9 µM (inactive) | GI50 (NCI-H226): 14.4 µM (inactive) | GI50 (SK-MEL-5): 13.8 µM (inactive) | GI50 (OVCAR-5): 23.2 µM (inactive) | GI50 (M19-MEL): 8.05 µM (inactive) | GI50 (SNB-75): 19.8 µM (inactive) | GI50 (HCT-116): 7.46 µM (inactive) | GI50 (HL-60): 2.35 µM (inactive) | GI50 (RXF 631): 3.72 µM (inactive) | GI50 (NCI-H23): 17.7 µM (inactive) | GI50 (SF-268): 18.5 µM (inactive) | GI50 (LXFL 529): 12 µM (inactive) | GI50 (NCI-H460): 15.4 µM (inactive) | GI50 (SF-539): 17.7 µM (inactive) | GI50 (SN12C): 15.2 µM (inactive) | GI50 (SK-MEL-28): 21.1 µM (inactive) | GI50 (NCI-H522): 11.5 µM (inactive) | GI50 (TK-10): 20 µM (inactive) | GI50 (MOLT-4): 3.6 µM (inactive) | GI50 (EKVX): 12.5 µM (inactive) | GI50 (HCC 2998): 13.6 µM (inactive) | GI50 (SK-MEL-2): 14.1 µM (inactive) | GI50 (SK-OV-3): 26.4 µM (inactive) | GI50 (U-251): 17.7 µM (inactive) | GI50 (HCT-15): 13.3 µM | GI50 (SW-620): 25.4 µM (inactive) | GI50 (KM12): 14.1 µM (inactive) | GI50 (KM-20L2): 4.51 µM (inactive) | GI50 (A549): 19.6 µM (inactive) | GI50 (UO-31): 14.3 µM (inactive) | GI50 (XF498): 4.39 µM (inactive) | GI50 (DLD-1): 7.41 µM (inactive) | GI50 (RPMI-8226): 3.31 µM (inactive) | GI50 (SF-295): 14.6 µM (inactive) | GI50 (A498): 20.2 µM (inactive)

N=C(N)NS(=O)(=O)c1ccc(NCc2c3ccccc3nc3ccccc23)cc1
GI50 (SNB-19): 0.711 µM (active) | GI50 (T47D): 1.16 µM (inactive) | GI50 (Hs-578T): 1.5 µM (inactive) | GI50 (MDA-N): 71.1 µM (inactive) | GI50 (IGROV-1): 23.4 µM (inactive) | GI50 (HOP-92): 0.24 µM (active) | GI50 (RXF 393): 11.9 µM (inactive) | GI50 (CAKI-1): 4.34 µM (inactive) | GI50 (K562): 2.72 µM (inactive) | GI50 (HT-29): 33.3 µM (inactive) | GI50 (UACC-62): 1.1 µM (active) | GI50 (M14): 4.67 µM (inactive) | GI50 (OVCAR-8): 3.78 µM (inactive) | GI50 (COLO 205): > 80.9 µM (inactive) | GI50 (786-0): 1.07 µM (active) | GI50 (SR): 0.0363 µM (active) | GI50 (HOP-18): 9.18 µM (inactive) | GI50 (HOP-62): 0.678 µM (active) | GI50 (DU-145): 1.83 µM (inactive) | GI50 (LOX IMVI): 0.946 µM (active) | GI50 (OVCAR-3): 11.6 µM (inactive) | GI50 (UACC-257): 14.5 µM (inactive) | GI50 (MDA-MB-435): 32.6 µM (inactive) | GI50 (CCRF-CEM): 0.0782 µM (active) | GI50 (ACHN): 1.39 µM (inactive) | GI50 (Malme-3M): 4.75 µM (inactive) | GI50 (MCF7): 0.0566 µM (active) | GI50 (NCI-H226): 0.421 µM (active) | GI50 (SK-MEL-5): 2.62 µM (inactive) | GI50 (DMS-273): 2.1 µM (inactive) | GI50 (OVCAR-5): 33.3 µM (inactive) | GI50 (PC-3): 16.1 µM (inactive) | GI50 (MDA-MB-231): 23 µM (inactive) | GI50 (M19-MEL): 10 µM (inactive) | GI50 (SNB-75): 0.608 µM (active) | GI50 (HCT-116): 3.01 µM (inactive) | GI50 (HL-60): 0.0679 µM (active) | GI50 (RXF 631): 4.82 µM (inactive) | GI50 (NCI-H23): 1.09 µM (active) | GI50 (SNB-78): 23.1 µM (inactive) | GI50 (SF-268): 0.679 µM (active) | GI50 (LXFL 529): 12.8 µM (inactive) | GI50 (NCI-H460): 0.0371 µM (active) | GI50 (SF-539): 0.483 µM (active) | GI50 (SN12C): 0.637 µM (active) | GI50 (DMS-114): 0.157 µM (active) | GI50 (SK-MEL-28): 47.3 µM (inactive) | GI50 (NCI-H522): 2.28 µM (inactive) | GI50 (TK-10): 64.1 µM (inactive) | GI50 (MOLT-4): 0.0308 µM (active) | GI50 (EKVX): 10.4 µM (inactive) | GI50 (HCC 2998): 7.38 µM (inactive) | GI50 (SK-MEL-2): > 20 µM (inactive) | GI50 (SK-OV-3): 2.73 µM (inactive) | GI50 (U-251): 0.354 µM (active) | GI50 (HCT-15): 40.3 µM | GI50 (BT-549): 7.16 µM (inactive) | GI50 (SW-620): 1.59 µM (inactive) | GI50 (KM12): 6.24 µM (inactive) | GI50 (KM-20L2): 57.9 µM (inactive) | GI50 (OVCAR-4): 39.5 µM (inactive) | GI50 (A549): 0.338 µM (active) | GI50 (UO-31): 18.6 µM (inactive) | GI50 (DLD-1): 23.5 µM (inactive) | GI50 (RPMI-8226): 2.82 µM (inactive) | GI50 (SF-295): 2.45 µM (inactive) | GI50 (A498): 1.17 µM (inactive)
